Laboratory results as given in ChEMBL document CHEMBL1201862, “PubChem BioAssay data set” (2004).
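Grown in 96-well plates, cells were treated for 48 hours with each compound at five concentrations. Insufficient inhibition: endpoint recorded as highest concentration tested. The concentration for 50% growth inhibition is given as GI50.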 Calls of active or inactive are those of the source. Cut-off read from the data, not from the text of the source: active = GI50 up to about 1.1 µM and inactive = higher.

Legend:
Assay in all cases: NCI tumour cell line growth inhibition, 48 h
HL-60 = test system: HL-60
PC-3 = test system: PC-3
SK-OV-3 = test system: SK-OV-3
OVCAR-5 = test system: OVCAR-5
T47D = test system: T47D
KM12 = test system: KM12
M14 = test system: M14
SNB-19 = test system: SNB-19
COLO 205 = test system: COLO 205
HOP-62 = test system: HOP-62
BT-549 = test system: BT-549
UO-31 = test system: UO-31
MCF7 = test system: MCF7
HT-29 = test system: HT-29
OVCAR-4 = test system: OVCAR-4
Hs-578T = test system: Hs-578T
SK-MEL-2 = test system: SK-MEL-2
HCT-116 = test system: HCT-116
OVCAR-8 = test system: OVCAR-8
A498 = test system: A498

Measured: GI50

CCCCCCc1cc2cc(-c3csc(-c4ccc(OC)cc4)n3)c(=O)oc2cc1O
inactive: HL-60 33.3 µM | PC-3 18.9 µM | SK-OV-3 15.2 µM | OVCAR-5 26.7 µM | T47D 7.82 µM | KM12 24.8 µM | M14 12.2 µM | SNB-19 9.95 µM | COLO 205 51.8 µM | HOP-62 14.7 µM | BT-549 2.36 µM | UO-31 6.7 µM | MCF7 17.8 µM | HT-29 96.2 µM | OVCAR-4 2.48 µM | Hs-578T 15.8 µM | SK-MEL-2 15.8 µM | HCT-116 7.19 µM

CP(=O)(O)C(N)c1ccccc1 (stereo not drawn)
inactive: HL-60 > 100 µM | PC-3 > 100 µM | SK-OV-3 > 100 µM | OVCAR-5 > 100 µM | T47D > 100 µM | KM12 > 100 µM | M14 > 100 µM | SNB-19 > 100 µM | COLO 205 > 100 µM | HOP-62 > 100 µM | BT-549 > 100 µM | UO-31 > 100 µM | MCF7 > 100 µM | HT-29 > 100 µM | OVCAR-4 > 100 µM | Hs-578T > 100 µM | HCT-116 > 100 µM | OVCAR-8 > 100 µM

Oc1c(N2CCOCC2)cc(-c2cc(N3CCOCC3)c(O)c3ccccc23)c2ccccc12
inactive: PC-3 2.64 µM | SK-OV-3 6.47 µM | OVCAR-5 2.86 µM | T47D 12.8 µM | KM12 6.05 µM | M14 1.56 µM | SNB-19 3.61 µM | COLO 205 1.93 µM | HOP-62 1.69 µM | BT-549 1.77 µM | UO-31 1.73 µM | MCF7 2.12 µM | HT-29 2.16 µM | OVCAR-4 1.93 µM | Hs-578T 3.44 µM | SK-MEL-2 2.65 µM | HCT-116 2.16 µM | OVCAR-8 1.6 µM

C=C(Cl)/C(=C\Br)CCC(Cl)C(C)C.C=C(Cl)/C(=C\Cl)CCC(Cl)C(C)C (stereo not drawn)
inactive: HL-60 4.24 µM | PC-3 19.8 µM | SK-OV-3 22.8 µM | A498 20.3 µM | OVCAR-5 20.5 µM | KM12 14.3 µM | M14 17.4 µM | SNB-19 17.6 µM | COLO 205 26.3 µM | HOP-62 18.3 µM | BT-549 15.2 µM | UO-31 18.2 µM | MCF7 10.6 µM | HT-29 17.7 µM | OVCAR-4 16.3 µM | Hs-578T 11.9 µM | SK-MEL-2 13.6 µM | HCT-116 16.1 µM

O=C(N/C(=C/c1ccc(Cl)cc1)c1nc2ccccc2c(=O)n1Nc1ccc([N+](=O)[O-])cc1[N+](=O)[O-])c1ccccc1
inactive: PC-3 > 100 µM | SK-OV-3 > 100 µM | OVCAR-5 > 100 µM | T47D > 100 µM | KM12 > 100 µM | M14 > 100 µM | SNB-19 > 100 µM | COLO 205 > 100 µM | HOP-62 > 100 µM | BT-549 > 100 µM | UO-31 > 100 µM | MCF7 > 100 µM | HT-29 > 100 µM | OVCAR-4 > 100 µM | Hs-578T > 100 µM | HCT-116 > 100 µM | OVCAR-8 > 100 µM

CC(C)(C)c1ccc(C(C)(C)C)c(N2C(=O)C3ON=C(c4ccc([N+](=O)[O-])cc4)C3C2=O)c1 (stereo not drawn)
inactive: HL-60 > 25 µM | SK-OV-3 > 25 µM | A498 5.96 µM | OVCAR-5 > 25 µM | T47D > 25 µM | KM12 > 25 µM | M14 > 25 µM | SNB-19 > 25 µM | COLO 205 > 25 µM | HOP-62 23.4 µM | BT-549 > 25 µM | UO-31 22.1 µM | MCF7 22.8 µM | HT-29 21.4 µM | OVCAR-4 8.57 µM | Hs-578T 6.98 µM | HCT-116 13.7 µM | OVCAR-8 10.4 µM

Clc1ccc(/C=N/C23CC4CC(CC(C4)C2)C3)c(Cl)c1
inactive: HL-60 > 10 µM | PC-3 > 10 µM | SK-OV-3 > 10 µM | A498 > 10 µM | OVCAR-5 > 10 µM | T47D > 10 µM | KM12 > 10 µM | M14 > 10 µM | SNB-19 > 10 µM | COLO 205 > 10 µM | HOP-62 > 10 µM | BT-549 > 10 µM | HT-29 > 10 µM | OVCAR-4 > 10 µM | Hs-578T > 10 µM | SK-MEL-2 > 10 µM | HCT-116 > 10 µM | OVCAR-8 > 10 µM

O=C(CCCN1CCC(O)(c2ccc(Cl)cc2)CC1)c1ccc(F)cc1 [HALOPERIDOL]
inactive: PC-3 70 µM | SK-OV-3 34.9 µM | OVCAR-5 28.8 µM | T47D 37.5 µM | KM12 18.6 µM | M14 18.5 µM | SNB-19 > 100 µM | COLO 205 18.6 µM | HOP-62 36.1 µM | BT-549 31 µM | UO-31 15.7 µM | MCF7 37.9 µM | HT-29 18.8 µM | OVCAR-4 85.7 µM | Hs-578T 25.4 µM | SK-MEL-2 20.7 µM | HCT-116 15.1 µM | OVCAR-8 32.7 µM
